Assay results: PubChem BioAssay (NCI)
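1) Cells in 96-well plates. 2) Compound, 48 h, 5 concentrations. 3) Linear interpolation between surrounding doses. 4) Unreached endpoint = highest concentration. TGI is the concentration that stops growth completely.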

What was measured:
Assay in all cases: inhibition of tumour cell growth, NCI panel, 48 h
U251 CNS = test system: U251 CNS
HS 578T breast = test system: HS 578T breast
SK-MEL-28 melanoma = test system: SK-MEL-28 melanoma
SK-OV-3 ovarian = test system: SK-OV-3 ovarian
ACHN renal = test system: ACHN renal
KM12 colon = test system: KM12 colon
SK-MEL-5 melanoma = test system: SK-MEL-5 melanoma
COLO 205 colon = test system: COLO 205 colon
MOLT-4 leukemia = test system: MOLT-4 leukemia
UO-31 renal = test system: UO-31 renal
MDA-MB-435 = test system: MDA-MB-435
A549 NSCLC = test system: A549 NSCLC
HL-60(TB) leukemia = test system: HL-60(TB) leukemia
IGROV1 ovarian = test system: IGROV1 ovarian
SK-MEL-2 melanoma = test system: SK-MEL-2 melanoma
HCT-15 colon = test system: HCT-15 colon
SN12C renal = test system: SN12C renal
NCI-H460 lung = test system: NCI-H460 lung
HOP-62 NSCLC = test system: HOP-62 NSCLC
HCC-2998 colon = test system: HCC-2998 colon
BT-549 breast = test system: BT-549 breast
NCI-H522 lung = test system: NCI-H522 lung
HOP-92 NSCLC = test system: HOP-92 NSCLC
SF-295 CNS = test system: SF-295 CNS
CCRF-CEM leukemia = test system: CCRF-CEM leukemia
MDA-MB-231 breast = test system: MDA-MB-231 breast
HT29 colon = test system: HT29 colon
SF-268 CNS = test system: SF-268 CNS
SNB-19 CNS = test system: SNB-19 CNS
DU-145 prostate = test system: DU-145 prostate
HCT-116 colon = test system: HCT-116 colon
SW-620 colon = test system: SW-620 colon
OVCAR-3 ovarian = test system: OVCAR-3 ovarian
RXF 393 renal = test system: RXF 393 renal
CAKI-1 renal = test system: CAKI-1 renal
T-47D breast = test system: T-47D breast
SNB-75 CNS = test system: SNB-75 CNS
MALME-3M melanoma = test system: MALME-3M melanoma
OVCAR-4 ovarian = test system: OVCAR-4 ovarian
OVCAR-8 ovarian = test system: OVCAR-8 ovarian
NCI-H23 lung = test system: NCI-H23 lung
NCI-H226 lung = test system: NCI-H226 lung
LOX IMVI melanoma = test system: LOX IMVI melanoma
UACC-257 melanoma = test system: UACC-257 melanoma
786-0 renal = test system: 786-0 renal
SF-539 CNS = test system: SF-539 CNS
TK-10 renal = test system: TK-10 renal
MCF7 breast = test system: MCF7 breast
RPMI-8226 leukemia = test system: RPMI-8226 leukemia
K-562 leukemia = test system: K-562 leukemia
PC-3 prostate = test system: PC-3 prostate
SR leukemia = test system: SR leukemia
UACC-62 melanoma = test system: UACC-62 melanoma
M14 melanoma = test system: M14 melanoma
EKVX NSCLC = test system: EKVX NSCLC
MDA-N = test system: MDA-N
OVCAR-5 ovarian = test system: OVCAR-5 ovarian
A498 renal = test system: A498 renal
NCI/ADR-RES ovarian = test system: NCI/ADR-RES ovarian

`NCCCCC(N)C(=O)NCCNc1ccc(NCCNC(=O)C(N)CCCCN)c2c1C(=O)c1ccccc1C2=O` (centres undefined) gave a TGI (U251 CNS) of over 100 µM, a TGI (HS 578T breast) of over 100 µM and a TGI (SK-MEL-28 melanoma) of over 100 µM. The TGI (SK-OV-3 ovarian) was over 100 µM, the TGI (ACHN renal) was over 100 µM and the TGI (KM12 colon) was over 100 µM. The TGI (SK-MEL-5 melanoma) was over 100 µM, the TGI (COLO 205 colon) was over 100 µM and the TGI (MOLT-4 leukemia) was over 100 µM. It also gave a TGI (UO-31 renal) of over 100 µM, a TGI (MDA-MB-435) of over 100 µM and a TGI (A549 NSCLC) of over 100 µM. It also gave a TGI (HL-60(TB) leukemia) of over 100 µM, a TGI (IGROV1 ovarian) of over 100 µM and a TGI (SK-MEL-2 melanoma) of over 100 µM. For the same compound, the TGI (HCT-15 colon) was over 100 µM, the TGI (SN12C renal) was 99.1 µM and the TGI (NCI-H460 lung) was over 100 µM. For the same compound, the TGI (HOP-62 NSCLC) was over 100 µM, the TGI (HCC-2998 colon) was over 100 µM and the TGI (BT-549 breast) was 20.1 µM. It also gave a TGI (NCI-H522 lung) of over 100 µM, a TGI (HOP-92 NSCLC) of over 100 µM and a TGI (SF-295 CNS) of over 100 µM. For the same compound, the TGI (CCRF-CEM leukemia) was over 100 µM, the TGI (MDA-MB-231 breast) was over 100 µM and the TGI (HT29 colon) was over 100 µM. The TGI (SF-268 CNS) was over 100 µM, the TGI (SNB-19 CNS) was over 100 µM and the TGI (DU-145 prostate) was over 100 µM. For the same compound, the TGI (HCT-116 colon) was over 100 µM, the TGI (SW-620 colon) was over 100 µM and the TGI (OVCAR-3 ovarian) was over 100 µM. For the same compound, the TGI (RXF 393 renal) was 21.6 µM, the TGI (CAKI-1 renal) was over 100 µM and the TGI (T-47D breast) was over 100 µM. The TGI (SNB-75 CNS) was over 100 µM, the TGI (MALME-3M melanoma) was over 100 µM and the TGI (OVCAR-4 ovarian) was over 100 µM. The TGI (OVCAR-8 ovarian) was over 69 µM, the TGI (NCI-H23 lung) was over 100 µM and the TGI (NCI-H226 lung) was over 100 µM. The TGI (LOX IMVI melanoma) was over 100 µM, the TGI (UACC-257 melanoma) was over 100 µM and the TGI (786-0 renal) was over 100 µM. It also gave a TGI (SF-539 CNS) of over 100 µM, a TGI (TK-10 renal) of over 100 µM and a TGI (MCF7 breast) of over 100 µM. It also gave a TGI (RPMI-8226 leukemia) of over 100 µM, a TGI (K-562 leukemia) of over 100 µM and a TGI (PC-3 prostate) of over 100 µM. For the same compound, the TGI (SR leukemia) was over 100 µM, the TGI (UACC-62 melanoma) was over 100 µM and the TGI (M14 melanoma) was over 100 µM. The TGI (EKVX NSCLC) was over 100 µM, the TGI (MDA-N) was over 100 µM and the TGI (OVCAR-5 ovarian) was over 100 µM. The TGI (A498 renal) was over 100 µM and the TGI (NCI/ADR-RES ovarian) was over 100 µM.
